Where a name gives a salt, the structure may show the parent alone. Read-outs that look alike come from different tables or passages of the source. Square brackets hold non-standard residues; d marks the D form. Peptide text beside a SMILES is read from it. * marks the point of attachment. dDip = N[C@@H](C(=O)O)C(c1ccccc1)c1ccccc1; d2Nal = N[C@H](Cc1ccc2ccccc2c1)C(=O)O; Orn = NCCC[C@H](N)C(=O)O; Tfa = O=C(C(F)(F)F)*

This is an account of results in US5773414A, “Endothelin antagonists” (Warner-Lambert Company, priority 1997, dated 1998).

Assay [1] concerns the target T1, endothelin receptor (rat heart ventricle) (Rattus norvegicus, UniProt P26684).
T1 sequence (P26684 21-426): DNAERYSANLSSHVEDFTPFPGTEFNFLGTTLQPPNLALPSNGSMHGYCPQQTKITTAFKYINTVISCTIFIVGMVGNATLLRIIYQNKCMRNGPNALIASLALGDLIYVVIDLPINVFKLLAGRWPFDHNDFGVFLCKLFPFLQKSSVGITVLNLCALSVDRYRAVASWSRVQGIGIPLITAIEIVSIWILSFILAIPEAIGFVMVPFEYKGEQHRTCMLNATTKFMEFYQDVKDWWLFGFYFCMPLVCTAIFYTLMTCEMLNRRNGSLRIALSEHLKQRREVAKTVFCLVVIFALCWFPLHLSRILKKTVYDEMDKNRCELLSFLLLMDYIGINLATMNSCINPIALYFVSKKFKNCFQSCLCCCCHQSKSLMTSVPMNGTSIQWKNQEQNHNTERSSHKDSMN
The assay is described as follows: Rat Heart Ventricle Binding Assay ([125I]-ET-1). To be noted: Table II. The procedure:
Rat Heart Ventricle Binding Assay
IC50 values are calculated by weighing nonlinear regression curve-fitting to the mass-action (Langmuir) equation.

For assay [2], the system named is pulmonary artery rings contracted by SRTX-6c. Briefly: In vitro isolated vessel study, pulmonary artery rings, agonist SRTX-6c. On the set-up: species or system rabbit. To be noted: Table III, endothelium-denuded rings. The procedure:
In Vitro (Isolated Vessel) Studies
Male New Zealand rabbits were killed by cervical dislocation and exsanguination. Femoral and pulmonary arteries were isolated, cleaned of connective tissue, and cut into 4 mm rings. The endothelium was denuded by placing the rings over hypodermic tubing (32 gauge for femoral rings and 28 gauge for pulmonary rings, Small Parts Inc., Miami, Fla.) and gently rolling them. Denuded rings were mounted in 20 mL organ baths containing Krebs-bicarbonate buffer (composition in mM: NaCl, 118.2; NaHCO3, 24.8; KCl, 4.6; MgSO4, 7.H2 O, 1.2; KH2 PO4, 1.2; CaCl2. 2H2 O; Ca--Na2 EDTA, 0.026; Dextrose, 10.0), that was maintained at 37° C., and gassed continuously with 5% CO2 in oxygen (pH 7.4). Resting tension was adjusted to 3.0 g for femoral and 4.0 g pulmonary arteries; the rings were left for 90 minutes to equilibrate. Tension was monitored with force displacement transducers (Grass FT03, Quincy, Mass.) and recorded on a polygraph (Gould 2108, Cleveland, Ohio) recorder.
Vascular rings were tested for a lack of functional endothelium, i.e., lack of an endothelium-dependent relaxation response to carbachol (1.0 μM) in norepinephrine (0.03 μM) contracted rings. […]
For the in vitro experiments compounds were dissolved in 0.1% acetic acid in distilled water. […] The antagonist activity of various compounds are expressed as PA2 values in Table III.

For assay [3], the target named is T2, endothelin-stimulated inositol phosphate accumulation in Rat-1 cells (Rattus norvegicus, UniProt P26684).
T2 sequence (P26684 21-426): T1 sequence (P26684 21-426)
Briefly: Inositol Phosphate Accumulation. Format: cell-based. The procedure:
Inositol Phosphate Accumulation
The functional activity of compounds of Formula I is determined in Rat-1 cells by measuring intra-cellular levels of second messengers. […] Antagonist activity is assessed as the ability of added compounds to reduce endothelin-stimulated inositol phosphate accumulation.

For another assay, the target named is T3, ETB (Rattus norvegicus, UniProt P21451).
T3 construct: thaw one aliquot of frozen rat cerebellar membranes; from tissue; host or cells: rat cerebellar membranes
T3 sequence (P21451 27-442): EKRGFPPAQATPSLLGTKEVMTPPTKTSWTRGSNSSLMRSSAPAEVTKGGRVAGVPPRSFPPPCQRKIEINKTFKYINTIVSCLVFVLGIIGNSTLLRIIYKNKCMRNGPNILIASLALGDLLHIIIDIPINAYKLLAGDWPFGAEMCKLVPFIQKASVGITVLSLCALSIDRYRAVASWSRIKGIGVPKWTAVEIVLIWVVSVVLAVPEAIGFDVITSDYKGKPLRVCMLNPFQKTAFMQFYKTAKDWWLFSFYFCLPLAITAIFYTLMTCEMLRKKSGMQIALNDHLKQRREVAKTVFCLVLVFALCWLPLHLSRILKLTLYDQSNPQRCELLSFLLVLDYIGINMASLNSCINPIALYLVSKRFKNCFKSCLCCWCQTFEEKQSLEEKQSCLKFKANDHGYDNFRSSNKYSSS
Briefly: Endothelin Receptor Binding Assay-B (ETB), [125I]-ET-1 binding in rat cerebellar membranes. To be noted: Table IIa; rat cerebellar membranes; read-out: Binding Assay IC50 at Receptor Subtypes ETB. On the procedure:
The tissue is made up of 20 mM tris(hydroxymethyl)aminomethane hydrochloride (Trizma) buffer, 2 mM ethylenediaminetetraacetate, 100 μM phenylmethylsulfonyl fluoride.
First, thaw one aliquot of frozen rat cerebellar membranes (2 mg protein in 0.5 mL). Next, add 0.5 mL membrane aliquot to 4.5 mL cold tissue buffer, polytron at 7,500 revolutions per minute for 10 seconds. Finally, dilute tissue suspension 1/100 (0.1 mL suspension+9.9 mL tissue buffer), polytron again, and place ice.
Mix in 150 μL of tissue to each tube, vortex briefly, then tap to force all liquids to bottom (total assay volume=250 μL). Then place the tubes in a 37° C. water bath for 2 hours.
Add 2.5 mL cold water buffer (50 mM Trizma buffer) to each tube, filter, and then wash tube with additional 2.5 mL wash buffer and add to filter. Finally, wash filters with an additional 2.5 mL of cold wash buffer.
Count filters for radioactivity in gamma counter.

Another assay addresses T4, ETA (Oryctolagus cuniculus, UniProt A5A8K3).
T4 construct: The cells used were rabbit renal artery vascular smooth muscle cells; endogenous in cells; host or cells: rabbit renal artery vascular smooth muscle cells
T4 sequence (A5A8K3 21-427): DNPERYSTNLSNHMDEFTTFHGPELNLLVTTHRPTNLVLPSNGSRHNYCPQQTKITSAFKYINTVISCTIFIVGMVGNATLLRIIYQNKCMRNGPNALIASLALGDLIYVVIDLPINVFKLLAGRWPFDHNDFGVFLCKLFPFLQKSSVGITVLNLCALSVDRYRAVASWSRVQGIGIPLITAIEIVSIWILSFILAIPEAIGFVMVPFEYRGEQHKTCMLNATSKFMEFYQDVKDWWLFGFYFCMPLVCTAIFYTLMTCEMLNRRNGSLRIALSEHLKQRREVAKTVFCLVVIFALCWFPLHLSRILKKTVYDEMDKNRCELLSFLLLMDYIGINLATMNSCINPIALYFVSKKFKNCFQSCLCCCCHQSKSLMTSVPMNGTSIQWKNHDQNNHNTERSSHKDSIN
The assay is described as follows: Endothelin Receptor Binding Assay-A (ETA), intact cell binding of [125I]-ET-1. On the set-up: species or system rabbit. To be noted: Table IIa; rabbit renal artery vascular smooth muscle cells; read-out: Binding Assay IC50 at Receptor Subtypes ETA. The procedure:
The cells used were rabbit renal artery vascular smooth muscle cells grown in a 48-well dish (1 cm^2) (confluent cells).
The growth media was Dulbeccos Modified Eagles/Ham's F12 which contained 10 fetal bovine serum and antibiotics (penicillin/streptomycin/fungizone).
Second, remove the assay buffers, place the dish on ice, and add 150 μL of cold assay buffer described above to each well. […] Next, place dish in a 37° C. water bath for about 2 hours and gently agitate the dish every 15 minutes. Discard the radioactive incubation mixture in the sink and wash wells 3 times with 1 mL of cold phosphate buffered saline. Last, add […] of 0.25M sodium hydroxide, agitate for 1 hour on rotator, and then transfer the sodium hydroxide extract to gamma counting tubes and count the radioactivity.

The test system of a further assay is endotoxic shock. The conditions noted are these: mouse model of endotoxic shock; cited from earlier work.
Assay [4] deals with ET-1 induced bronchoconstriction and tracheal smooth muscle contraction. The conditions noted are these: allergic sheep; cited from earlier work.

In the case of `CC[C@H](C)[C@H](NC(=O)[C@H](CC(=O)O)NC(=O)[C@@H](CC(C)C)NC(=O)[C@H](NC(C)=O)C(c1ccccc1)c1ccccc1)C(=O)N[C@H](C(=O)N[C@@H](Cc1c[nH]c2ccccc12)C(=O)O)[C@@H](C)CC` [Example 23, Ac--D--Dip--D--Leu--Asp--Ile--Ile--Trp] (Ac-[dDip][dL]DIIW-OH), the inhibition at 10 µM in assay [1] came to 41.3%.

Take `CC[C@H](C)[C@H](NC(=O)[C@H](CC(=O)O)NC(=O)[C@H](CC(C)C)NC(=O)[C@H](NC(C)=O)C(c1ccccc1)c1ccccc1)C(=O)N[C@H](C(=O)N[C@@H](Cc1c[nH]c2ccccc12)C(=O)O)[C@@H](C)CC` [Disodium salt of Ac-D-Dip-Leu-Asp-Ile-Ile-Trp] (Ac-[dDip]LDIIW-OH): the “pA2, rabbit pulmonary artery” value in assay [2] was determined as 6.26.

As to `CC[C@H](C)[C@H](NC(=O)[C@H](CC(=O)O)NC(=O)[C@H](CC(C)C)NC(=O)[C@H](N)Cc1ccc2ccccc2c1)C(=O)N[C@H](C(=O)N[C@@H](Cc1c[nH]c2ccccc12)C(=O)O)[C@@H](C)CC` [Example 4, D-2-Nal--Leu--Asp--Ile--Ile--Trp] (H-[d2Nal]LDIIW-OH; N-terminus and C-terminus assumed), the inhibition at 50 µM was found to be 53% in assay [3] (Table II, read-out: IP (Inositol Phosphate) Accumulation, Inhibition) and 53% in assay [3] (Table IIa, read-out: IP (Inositol Phosphate) Accumulation, % Inhibition).

In the case of `CC[C@H](C)[C@H](NC(=O)[C@H](CC(=O)O)NC(=O)[C@@H](Cc1ccccc1)NC(C)=O)C(=O)N[C@H](C(=O)N[C@@H](Cc1c[nH]c2ccccc12)C(=O)O)[C@@H](C)CC` [Example 11, Ac--D--Phe--Asp--Ile--Ile--Trp] (Ac-[dF]DIIW-OH), the figures for the IC50 on ETB and on ETA were 9300 nM and 9100 nM, respectively. In assay [3] (Table IIa, @ 10 μM, read-out: IP (Inositol Phosphate) Accumulation, % Inhibition), the inhibition at 10 µM is 30%.

Regarding `CC[C@H](C)[C@H](NC(=O)[C@H](CC(=O)O)NC(=O)[C@H](CCC(=O)O)NC(=O)[C@H](NC(C)=O)C(c1ccccc1)c1ccccc1)C(=O)N[C@H](C(=O)N[C@@H](Cc1c[nH]c2ccccc12)C(=O)O)[C@@H](C)CC` [Example 20, Ac--D--Dip--Glu--Asp--Ile--Ile--Trp] (Ac-[dDip]EDIIW-OH), the figures for the IC50 on ETB and on ETA were 52 nM and 25 nM, respectively. In addition, the “pA2, rabbit pulmonary artery” value in assay [2] is listed as 6.85.

`CC(C)C[C@@H]1NC(=O)[C@@H](C(C)C)NC(=O)[C@@H]2CCCN2C(=O)[C@@H](CC(=O)O)NC(=O)[C@@H](Cc2c[nH]c3ccccc23)NC1=O` [BQ-123] (cyclo(L[dW][dD]P[dV])): the survival rate result in the assay with endotoxic shock is on record as “significantly increased”. Further, in assay [4], the “effect on ET-1 induced bronchoconstriction and tracheal smooth muscle contraction” value was “block ET-1 induced bronchoconstriction and tracheal smooth muscle contraction”.

On to `CC[C@H](C)[C@H](NC(=O)[C@H](CC(=O)O)NC(=O)[C@H](CC(C)C)NC(=O)[C@H](NC(C)=O)C(c1ccccc1)c1ccccc1)C(=O)N[C@@H](CCCCN)C(=O)N[C@@H](Cc1c[nH]c2ccccc12)C(=O)O` [Example 17, Ac--D--Dip--Leu--Asp--Ile--Lys--Trp] (Ac-[dDip]LDIKW-OH), for which the IC50 is 4200 nM at ETB and above 10000 nM on ETA. The same compound yielded an inhibition at 10 µM in assay [1] of 24.6%.

For the compound `CC[C@H](C)[C@H](NC(=O)[C@H](CC(=O)O)NC(=O)[C@H](CCCN)NC(=O)[C@H](NC(C)=O)C(c1ccccc1)c1ccccc1)C(=O)N[C@H](C(=O)N[C@@H](Cc1c[nH]c2ccccc12)C(=O)O)[C@@H](C)CC` [Example 21, Ac--D--Dip--Orn--Asp--Ile--Ile--Trp] (Ac-[dDip][Orn]DIIW-OH), the IC50 was found to be 220 nM on ETB and 15 nM at ETA. In addition, in assay [1] (@ 0.05 μM), 0.05 µM produced 79% inhibition.

Regarding `CC[C@H](C)[C@H](NC(=O)[C@H](CC(=O)O)NC(=O)[C@H](CC(C)C)NC(=O)[C@H](NC(=O)C(F)(F)F)C(c1ccccc1)c1ccccc1)C(=O)N[C@H](C(=O)N[C@@H](Cc1c[nH]c2ccccc12)C(=O)O)[C@@H](C)CC` [Example 39, CF3 CO--D--Dip--Leu--Asp--Ile--Ile--Trp] (Tfa-[dDip]LDIIW-OH), the IC50 at ETB was 900 nM; on ETA, 250 nM.

As for `CC[C@H](C)[C@H](NC(=O)[C@H](CC(=O)O)NC(=O)[C@H](CC(C)C)NC(=O)[C@H](NC(C)=O)C(c1ccccc1)c1ccccc1)C(=O)N[C@@H](CCC(=O)O)C(=O)N[C@@H](Cc1c[nH]c2ccccc12)C(=O)O` [Example 18, Ac--D--Dip--Leu--Asp--Ile--Glu--Trp] (Ac-[dDip]LDIEW-OH), the inhibition at 10 µM in assay [1] turned out to be 37%.
